Active and inactive are the calls of the source. The calls are words filed in the database; no cut-off is given here.
Key:
[1] = biological target: T1, NPC1-like intracellular cholesterol transporter 1 (Homo sapiens) (UniProt Q9UHC9); assay: Inhibition of niemann pick C1-like protein-1 in human Caco-2 cells assessed as cholesterol uptake at 100 uM after 24 hrs by HPLC analysis; assay type: cell-based
T1 sequence (whole entry): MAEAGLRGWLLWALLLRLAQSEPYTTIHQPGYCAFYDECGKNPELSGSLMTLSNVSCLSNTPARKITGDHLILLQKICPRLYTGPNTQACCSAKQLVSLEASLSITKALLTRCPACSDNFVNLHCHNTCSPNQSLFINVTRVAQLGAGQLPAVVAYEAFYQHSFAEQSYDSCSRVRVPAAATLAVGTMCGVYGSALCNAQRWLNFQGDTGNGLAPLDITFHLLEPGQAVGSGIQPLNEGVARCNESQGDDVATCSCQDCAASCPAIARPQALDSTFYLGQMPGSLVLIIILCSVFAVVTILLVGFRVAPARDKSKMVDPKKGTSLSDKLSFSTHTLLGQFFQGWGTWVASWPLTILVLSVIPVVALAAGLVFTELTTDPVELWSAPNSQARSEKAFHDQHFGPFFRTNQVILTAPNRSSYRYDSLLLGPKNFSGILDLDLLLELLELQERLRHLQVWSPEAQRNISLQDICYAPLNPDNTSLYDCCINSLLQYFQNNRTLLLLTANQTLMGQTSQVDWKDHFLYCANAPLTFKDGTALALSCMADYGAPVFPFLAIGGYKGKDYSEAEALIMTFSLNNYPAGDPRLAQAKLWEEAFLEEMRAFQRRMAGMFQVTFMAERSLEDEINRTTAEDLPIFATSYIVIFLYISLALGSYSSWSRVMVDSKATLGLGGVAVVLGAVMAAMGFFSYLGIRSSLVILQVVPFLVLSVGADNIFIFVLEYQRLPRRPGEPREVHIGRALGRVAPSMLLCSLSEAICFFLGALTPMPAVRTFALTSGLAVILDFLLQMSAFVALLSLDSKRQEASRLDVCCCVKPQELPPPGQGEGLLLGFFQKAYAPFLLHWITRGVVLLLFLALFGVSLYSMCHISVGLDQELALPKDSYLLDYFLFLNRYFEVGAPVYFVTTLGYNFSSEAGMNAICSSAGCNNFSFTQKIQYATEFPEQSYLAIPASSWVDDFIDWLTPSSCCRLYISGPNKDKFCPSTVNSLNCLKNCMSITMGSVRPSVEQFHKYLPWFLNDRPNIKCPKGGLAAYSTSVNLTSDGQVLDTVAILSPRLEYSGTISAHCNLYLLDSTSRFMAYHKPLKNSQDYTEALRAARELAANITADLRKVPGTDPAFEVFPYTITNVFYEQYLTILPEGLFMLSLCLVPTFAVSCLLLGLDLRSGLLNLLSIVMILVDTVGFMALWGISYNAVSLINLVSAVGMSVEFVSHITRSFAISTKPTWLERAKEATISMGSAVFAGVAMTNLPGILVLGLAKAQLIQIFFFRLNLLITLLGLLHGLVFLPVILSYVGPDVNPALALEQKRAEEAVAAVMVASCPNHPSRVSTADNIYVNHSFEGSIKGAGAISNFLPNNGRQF

[2] = Octanol-water partition coefficient, logP of the compound by HPLC analysis; assay type: physicochemical
[3] = Cytotoxicity against human GES-1 cells assessed as cell viability after 48 hrs by MTT assay; assay type: cell-based, GES1; conditions: read-out: LC50
[4] = Cytotoxicity against human HEK293 cells assessed as cell viability after 48 hrs by MTT assay; assay type: cell-based; conditions: read-out: LC50
Hamster [5] = assay: Effect on triglyceride level in cholesterol fed hamster liver at 50 mg/kg/day, po administered for 7 days measured on day 7 post last dose; assay type: ADME, organism-based; conditions: cricetinae, in vivo, 168 h
Hamster [6] = assay: Decrease in total cholesterol level in serum of cholesterol fed hamster model at 50 mg/kg/day, po administered for 7 days measured on day 7 post last dose; assay type: functional, Cricetinae; set-up: scale not given: the % may be the effect or the level left
Hamster [7] = assay: Decrease in low density lipoprotein cholesterol level in serum of cholesterol fed hamster model at 50 mg/kg/day, po administered for 7 days measured on day 7 post last dose; assay type: functional, Cricetinae; set-up: scale not given: the % may be the effect or the level left
Hamster [8] = assay: Decrease in free fatty acid level in serum of cholesterol fed hamster model at 50 mg/kg/day, po administered for 7 days measured on day 7 post last dose; assay type: functional, Cricetinae; set-up: scale not given: the % may be the effect or the level left
Hamster [9] = assay: Decrease in triglyceride level in serum of cholesterol fed hamster model at 50 mg/kg/day, po administered for 7 days measured on day 7 post last dose; assay type: functional, Cricetinae; set-up: scale not given: the % may be the effect or the level left
Hamster [10] = assay: Increase in proportion of high density lipoprotein cholesterol to total cholesterol in serum of cholesterol fed hamster at 50 mg/kg/day, po administered for 7 days measured on day 7 post last dose; assay type: functional, Cricetinae
Hamster [11] = assay: Increase in nitric oxide level in serum of cholesterol fed hamster at 50 mg/kg/day, po administered for 7 days measured on day 7 post last dose; assay type: functional, organism-based; conditions: Cricetinae
Hamster [12] = assay: Increase in nitric oxide synthase level in serum of cholesterol fed hamster at 50 mg/kg/day, po administered for 7 days measured on day 7 post last dose; assay type: functional, organism-based; conditions: Cricetinae
Hamster [13] = assay: Effect on total cholesterol level in cholesterol fed hamster liver at 50 mg/kg/day, po administered for 7 days measured on day 7 post last dose; assay type: ADME, organism-based; conditions: cricetinae, in vivo, 168 h
Hamster [14] = assay: Toxicity in cholesterol fed hamster model assessed as change in body weight at 50 mg/kg/day, po administered for 7 days measured during compound dosing; assay type: organism-based; conditions: cricetinae, in vivo, 168 h
Hamster [15] = assay: Toxicity in cholesterol fed hamster model assessed as decrease in body weight at 50 mg/kg/day, po administered for 7 days measured for 3 days during compound dosing; assay type: organism-based; conditions: cricetinae, in vivo, 72 h

O=C1C(c2ccc(O)cc2)=C(c2ccc(F)cc2)C(=O)N1CCCCNS(=O)(=O)c1ccc(C(F)(F)F)cc1
inhibition [1]: Active

Cc1ccc(N2C(=O)[C@H](CCCNS(=O)(=O)c3ccc(OC(F)(F)F)cc3)[C@H]2c2ccc([N+](=O)[O-])cc2)cc1
logP [2]: ≥ 4.4
inhibition [1]: 47.9%
CC50 at 48 h [3]: 56.8 µM
CC50 at 48 h [4]: > 100 µM

O=C1C(c2ccc(O)cc2)=C(c2ccc(F)cc2)C(=O)N1CCCCNS(=O)(=O)c1ccc(OC(F)(F)F)cc1
inhibition [1]: Active

Cc1ccc(N2C(=O)[C@H](CCCNS(=O)(=O)c3ccc(OC(F)(F)F)cc3)[C@H]2c2ccc(NS(C)(=O)=O)cc2)cc1
logP [2]: 3.4
Activity (Hamster [5]): Non-toxic
inhibition [1]: 41.4%
CC50 at 48 h [3]: > 100 µM
CC50 at 48 h [4]: > 100 µM
Activity (Hamster [6]): 25.7%
Activity (Hamster [7]): 17.8%
Activity (Hamster [8]): 21.4%
Activity (Hamster [9]): 25.3%
Activity (Hamster [10]): 42.9%
Activity (Hamster [11]): Active
Activity (Hamster [12]): Active
Activity (Hamster [13]): Non-toxic
Activity (Hamster [14]): Non-toxic

O=C1[C@H](CC[C@H](O)c2ccc(F)cc2)[C@@H](c2ccc(O)cc2)N1c1ccc(F)cc1 [EZETIMIBE]
logP [2]: 3.4
CC50 at 48 h [3]: 61.3 µM
CC50 at 48 h [4]: 54.6 µM
Activity (Hamster [6]): 30.2%
Activity (Hamster [7]): 24.8%
Activity (Hamster [8]): 29.5%
Activity (Hamster [9]): 36%
Activity (Hamster [10]): 56%
Activity (Hamster [15]): Toxic

CCc1ccc(S(=O)(=O)NCCC[C@H]2C(=O)N(c3ccc(C)cc3)[C@@H]2c2ccc(NS(=O)(=O)c3ccc(C)cc3)cc2)cc1
logP [2]: 3.4
inhibition [1]: Active
CC50 at 48 h [3]: 92.9 µM
CC50 at 48 h [4]: 42.9 µM

CCc1ccc(S(=O)(=O)NCCC[C@H]2C(=O)N(c3ccc(C)cc3)[C@@H]2c2ccc(NS(C)(=O)=O)cc2)cc1
logP [2]: 3.4
inhibition [1]: Active
CC50 at 48 h [3]: > 100 µM
CC50 at 48 h [4]: > 100 µM

Cc1ccc(N2C(=O)[C@H](CCCNS(=O)(=O)c3cccs3)[C@H]2c2ccc([N+](=O)[O-])cc2)cc1
inhibition [1]: Active

CCc1ccc(S(=O)(=O)NCCC[C@H]2C(=O)N(c3ccc(C)cc3)[C@@H]2c2ccc([N+](=O)[O-])cc2)cc1
logP [2]: ≥ 4.4
inhibition [1]: Active
CC50 at 48 h [3]: > 100 µM
CC50 at 48 h [4]: > 100 µM

Cc1ccc(N2C(=O)[C@H](CCCNS(=O)(=O)c3ccc(OC(F)(F)F)cc3)[C@H]2c2ccc(NS(=O)(=O)c3ccc(C)cc3)cc2)cc1
logP [2]: 3.4
inhibition [1]: Active
CC50 at 48 h [3]: > 100 µM
CC50 at 48 h [4]: > 100 µM
